Laboratory results from ChEMBL document CHEMBL3988442, “University of Dundee, Small-Polar-MMV Screening Library” (2021).

Tests used:
[1] = microbe, parasite or virus in culture; conditions: Mycobacterium tuberculosis, 96 h, read-out: pIC50 (converted)
[2] = microbe, parasite or virus in culture; conditions: Mycobacterium tuberculosis, 72 h, read-out: pIC50 (converted)

| SMILES | IC50 [1] [µM] | IC50 [2] [µM] |
| --- | --- | --- |
| Cc1cc(=O)[nH]c(-n2nc(-c3ccccc3)cc2N)n1 | > 50.1 | 43.5 |
| Cc1cccc(-c2noc([C@@H]3Cc4nc[nH]c4CN3)n2)c1 | – | 1.94 |
| Clc1ccc(-c2nnc([C@H]3CCN(C4CCCCC4)C3)o2)cc1 | 24.2 | 7.04 |
| O=C1N(c2ccccc2)C[C@H]2CN(C3CCC3)CCN12 | – | 7.22 |
| CC(=O)N1CCC(N2CCOC[C@H]2c2nc(-c3ccc(Cl)s3)c[nH]2)CC1 | > 50.1 | – |
| Cc1ccc(-c2noc([C@@H]3Cc4nc[nH]c4CN3)n2)cc1 | 2.31 | 1.94 |
| CC1=C[C@@H](CN2CCCC2)[C@H](C(C)C)C[C@H]1Cc1nnc(C)o1 | > 50.1 | > 50.1 |
| Cc1cc(NCCN)nc(-c2ccccc2O)n1 | – | > 50.1 |
| CN1CCN(C(=O)c2cc3sccc3n2Cc2ccc(Cl)cc2)CC1 | > 50.1 | – |
| CCc1c(C)nc(-n2nc(-c3cccs3)cc2N)[nH]c1=O | – | 44 |
| COc1ccc(S(=O)(=O)N2CCC(Cn3ccnc3)CC2)cc1 | > 50.1 | – |
| CC(=O)NCC(Cc1cccc(F)c1)n1cccc1 (stereo not given) | 42.5 | > 50.1 |
| CCOCC(=O)NCC(Cc1cccc(F)c1)n1cccc1 (stereo not given) | 11.7 | 10.4 |
| O=C(NCC(F)(F)F)C1CN(C(=O)c2cnccn2)C1 | > 50.1 | > 50.1 |
| CC1CCCN(C(=O)c2nnn(-c3ccc(C(F)(F)F)cc3)n2)C1 (stereo not given) | 43.9 | 18.3 |
| CN(C)C(=O)c1nnn(-c2ccc(Br)cc2)n1 | 14.2 | 12.6 |
| COc1cc(C(=O)NCCc2ccccc2OC)on1 | – | > 50.1 |
| COC[C@@H]1CN(C)C(=O)[C@@H]2CCN(Cc3ccco3)CC[C@H]12 | > 50.1 | > 50.1 |
| Cc1noc(C[C@@H]2COC[C@H]3CN(C(=O)C4=CCCC4)C[C@@H]23)n1 | – | > 50.1 |
| FC1(F)CCNCC12CCN(c1ncccn1)C2 (stereo not given) | > 50.1 | > 50.1 |
| CN(C)c1ncnc2c1CCN(c1cccc(F)c1)CC2 | > 50.1 | > 50.1 |
| O=C(c1cc(-c2ccn(CC3CC3)n2)n2ccccc12)N1CCCO1 | 1.05 | 3.54 |
| Cc1nc(CNCC2COCc3c(-c4ccoc4)nnn3C2)cs1 (stereo not given) | > 50.1 | > 50.1 |

| SMILES | IC50 [1] [µM] | IC50 [2] [µM] |
| --- | --- | --- |
| CC(C)Nc1nc(N2CCCC2)nc2c1CN(c1ncc(F)cn1)CC2 | 28.3 | 46.4 |
| CCOC(=O)CSc1ccc(-c2nc(CC)no2)cn1 | 27.2 | 29.9 |
| Cc1ccc(N2N=C(C(N)=O)S(=O)(=O)c3cccnc32)cc1 | 36 | 14.5 |
| COc1cccc(N2Cc3nc(=O)n(C(C)C)n3C2=O)c1 | > 50.1 | > 50.1 |
| CCc1c(C)n(CCC#N)c2nc3ccccc3n2c1=O | > 50.1 | > 50.1 |
| CCSC1=Nc2c(cnn2-c2ccc(Cl)cc2)C2=NCCCN12 | 17.1 | 12.8 |
| CSC1=Nc2c(cnn2-c2cccc(Cl)c2)C2=NCCCN12 | 28.3 | 5.78 |
| CSC1=Nc2c(cnn2-c2ccc(C)cc2)C2=NCCCN12 | > 50.1 | 0.957 |
| O=S(=O)(Cc1ccc(Br)cc1)NCCO | > 50.1 | > 50.1 |
| CC(C)CN1Cc2nc(N3CCCC3)ncc2C1=O | > 50.1 | – |
| Cc1nn(C)c2c(N3CCN(C)CC3)nc(C3CC3)nc12 | – | 47.6 |
| Cc1cc2c(cc1Cl)C=CC1(CCN(CC(=O)N3CCCC3)CC1)O2 | – | > 50.1 |
| CCCC1c2cccn2CCN1C(=O)Cn1cnc2sc(C)cc2c1=O (stereo not given) | > 50.1 | – |
| CCCn1cc(Cl)c(C(=O)N2C[C@@H](O)[C@H](Oc3ccccc3)C2)n1 | – | > 50.1 |
| CO[C@H]1C[C@@H]2CN(C(=O)Cc3ccc(C)s3)C[C@@H]2C1 | > 50.1 | – |
| CO[C@H]1C[C@@H]2CN(C(=O)c3ccc(C)s3)C[C@@H]2C1 | 22.3 | – |
| NCCn1nc(C2CCN(C(=O)Cc3ccccc3)C2)c2nccnc21 (stereo not given) | > 50.1 | – |
| CN(CCCOc1ccccc1)C(=O)c1csc(-c2nnc[nH]2)n1 | > 50.1 | – |
| CCCc1nc(CN(CCO)Cc2cc(Br)ccc2F)no1 | – | 18.9 |
| O=c1oc(-c2ccc(F)cc2)nn1CC1CCOC1 (stereo not given) | – | 34.3 |
| O=C(CCC(F)(F)F)NCC1CCCS1 (stereo not given) | – | 8.35 |
| N#Cc1csc(CNCCOc2ccccc2)c1 | > 50.1 | – |
| COc1cccc(-c2cnc(CNC(C)(C)c3nc(C)cs3)o2)c1 | > 50.1 | – |

| SMILES | IC50 [1] [µM] | IC50 [2] [µM] |
| --- | --- | --- |
| CC(C1CC1)N(C)Cc1nnc(-c2ccco2)o1 (stereo not given) | > 50.1 | – |
| CC(C)CCC(=O)NCC(=O)N1CCCCCC1c1ccco1 (stereo not given) | 6.55 | – |
| CNS(=O)(=O)c1cccc(C(C)NCc2ccc(C)c(C)c2)c1 (stereo not given) | > 50.1 | – |
| CCNC(=O)CCCC(=O)N1CCc2cc(Cl)cc(Cl)c2C1 | – | > 50.1 |
| CCOCc1nnc(NCc2ccsc2)o1 | 24.8 | – |
| Cc1cnn(-c2cccc(N3CCN(c4cc(C)nc(C)n4)CC3)n2)c1 | > 50.1 | – |
| COCCN(Cc1ccccc1)Cc1nc(-c2ccsc2)no1 | – | 20.5 |
| Cc1nnc(CN(Cc2ccccc2Br)C2CC2)o1 | – | 20.1 |
| CCc1nnc(CN(C)CC2CCCCC2)o1 | – | > 50.1 |
| Cc1ccc(NC(=O)c2ncc(C(N)=O)cc2Cl)cc1F | – | > 50.1 |
| N#CCCCn1nnnc1Cc1ccc(Br)cc1 | – | > 50.1 |
| CCN(C(=O)CCCOC)C(c1ccc(Cl)cc1)c1ccccn1 (stereo not given) | > 50.1 | – |
| Cc1nc(CNC(=O)Nc2ccc3c(c2)CCCC(=O)N3)sc1C | – | > 50.1 |
| Cc1cccc(NCc2ncc(C(C)(C)C)o2)c1 | 12 | – |
| CC(Cn1cccn1)NS(=O)(=O)Cc1ccccc1 (stereo not given) | – | > 50.1 |
| CN(C)c1ccc(CNC(=O)c2ccc(Cl)cc2F)cc1 | > 50.1 | – |
| CCc1nc2c(NCC3COc4c(cccc4OC)C3)ncnc2o1 (stereo not given) | > 50.1 | – |
| Cc1cccnc1CN(C)C(C(=O)O)c1ccc(-c2ccn[nH]2)cc1 (stereo not given) | – | > 50.1 |
| O=C1N(Cc2ccc(F)c(F)c2)CCCC12CCN(C1CCCC1)C2 (stereo not given) | – | > 50.1 |
| Cc1nc(-c2cc(F)c3c(c2)CC(CN)O3)c[nH]1 (stereo not given) | – | 2.55 |
| Fc1ccccc1CN1CCCC2(CCN(c3ncccn3)C2)C1 (stereo not given) | – | 30.4 |
| CCSc1ncc(CN2CCN(c3ncc(C)c(N)n3)CC2)cn1 | 20.4 | – |
| Cc1cc(N2Cc3cnn(CCO)c3C2)nc(-c2ccccc2O)n1 | – | > 50.1 |

| SMILES | IC50 [1] [µM] | IC50 [2] [µM] |
| --- | --- | --- |
| O=C1N(Cc2ccc(F)cc2)CCCC12CCN(C1CCSCC1)C2 (stereo not given) | – | > 50.1 |
| Cc1nc(CN2CCC(NS(C)(=O)=O)CC2)co1 | – | > 50.1 |
| COc1coc(CN2CCCC(CCc3c(F)cccc3F)C2)cc1=O (stereo not given) | 9.45 | – |
| Cc1cccc2cc(CO)c(N3Cc4cnc(C(C)(C)C)nc4C3)nc12 | – | > 50.1 |
| Cc1cc(F)ccc1CN1CCCC(O)(CN2CCCC2)C1 (stereo not given) | – | > 50.1 |
| c1ccc(-c2nc3c(c(NCCc4c[nH]cn4)n2)CCNC3)cc1 | – | 10.9 |
| COc1cnc(C2(O)CCN(C(=O)c3cccnc3)CC2)c(OC)n1 | – | > 50.1 |
| O=C(c1nn(-c2ccccc2F)cc1O)N1CCC2(CC1)OCCO2 | > 50.1 | – |
| Cc1ccccc1NC1CCN(C(=O)CCc2ccco2)CC1 | – | > 50.1 |
| Cc1csc(N2CCCN(CCC(=O)NC(N)=O)CC2)n1 | – | 39.4 |
| COc1cccc(CN2CCCC2c2c(C)nn(C)c2C)c1 (stereo not given) | – | 46.9 |
| CCC(CO)NCc1ccc(-c2ccc(Br)cc2)o1 (stereo not given) | 27.5 | 44.3 |
| CCC(CO)NCc1ccc(-c2ccc(F)c(Cl)c2)o1 (stereo not given) | 13.2 | 35.4 |
| CN1CCCC1c1cc2cccnc2n1Cc1ccc(F)cc1 (stereo not given) | > 50.1 | – |
| Cn1ccc(CN2CCOCC23CCNCC3)n1 | > 50.1 | – |
| c1csc(CN2CC(c3nc(-c4cnccn4)no3)C2)c1 | > 50.1 | > 50.1 |
| Clc1ccc(COCC2CCN(Cc3ccccn3)CC2)cc1 | 26.8 | 26.2 |
| CCN1C[C@@H]2[C@@H](OC)CCN(C(=O)Cc3ccsc3)[C@@H]2C1 | > 50.1 | > 50.1 |
| N#Cc1ccc(N2CCC3(CC2)COCCN3Cc2cccnc2)cc1 | > 50.1 | > 50.1 |
| Cc1cccc(N2CCC3(CCCC(=O)N3)CC2)n1 | > 50.1 | – |
| Cc1ccc(N2CCN(C)c3ncccc3C2)nn1 | > 50.1 | > 50.1 |
| COCc1n[nH]c2c1CN(C(=O)c1ccncc1)C2 | > 50.1 | 29.7 |
| CC(=O)N1CCCC1c1nnn2cc(-c3ccncc3)ccc12 (stereo not given) | > 50.1 | > 50.1 |

| SMILES | IC50 [1] [µM] | IC50 [2] [µM] |
| --- | --- | --- |
| CCN1C(=O)[C@H]2CN(CC(C)C)C[C@H]2C12CCN(S(C)(=O)=O)CC2 | > 50.1 | > 50.1 |
| O=C1[C@H]2CN(C3CCOC3)C[C@H]2CN1c1ccccc1 (stereo not given in full) | > 50.1 | > 50.1 |
| OCCN1CCC2(CCc3cc(-c4ccoc4)ccc32)CC1 | 24.1 | 23.5 |
| CCOCc1cnc2n1CCN(C(=O)Cc1ccccn1)C2C (stereo not given) | > 50.1 | > 50.1 |
| O=C1COC2(CCN(c3ccccn3)CC2)CN1 | > 50.1 | > 50.1 |
| Cc1nc(N2CCCC2)nc2c1CCN(Cc1ccsc1)CC2 | 1.59 | 0.893 |
| Cc1nc(N2CCCC2)nc2c1CCN(Cc1ccoc1)CC2 | 14.7 | 22.8 |
| Cc1ccc(CNCC2Cn3nnc(-c4cccc(F)c4)c3CO2)o1 (stereo not given) | – | 8.85 |
| Cn1cc(C(=O)N[C@@H]2CN(Cc3ccc(F)cc3)[C@@H]3CCCO[C@@H]32)cn1 | > 50.1 | > 50.1 |
| O=C(c1ccc(F)cc1)N1C[C@H]2CCC[C@@]2(COCc2ccncc2)C1 | > 50.1 | > 50.1 |
| COc1ccc(C[C@H]2CN(C(=O)CN(C)C)CC[C@H]2OC)cc1 | > 50.1 | – |
| CN(C)CCN1C(=O)CCC12CCCN(C(=O)c1cccnc1)CC2 (stereo not given) | > 50.1 | – |
| CN(C)CC(=O)N1CCC2(CCc3cc(-c4cccnc4)ccc32)CC1 | > 50.1 | > 50.1 |
| CN1[C@H](CN2CCCC2)C[C@@H]2CN(C(=O)c3cccn3C)CC[C@@H]21 | > 50.1 | – |
| Cc1noc(C)c1-c1cccc(C2CN(CC(=O)N(C)C)CCO2)n1 (stereo not given) | > 50.1 | – |
| CC(N)Cc1ccccc1Sc1ccc(O)cc1 (stereo not given) | > 50.1 | > 50.1 |
| Cc1cc(CC(=O)NCCCc2ccncc2)on1 | – | > 501 |
| NC1CCS(=O)(=O)c2ccc(Br)cc21 (stereo not given) | 89.1 | – |
| Nc1ncnc2[nH]c(N3CCCCC3)nc12 | > 50.1 | > 50.1 |
